Patent US20240174634A1, “Aldehyde Dehydrogenase Inhibitors and Their Therapeutic Use” (priority 2020, published 2024)

Target: T1, ALDH1A3 (Homo sapiens, UniProt P47895)
T1 sequence (P47895 1-512): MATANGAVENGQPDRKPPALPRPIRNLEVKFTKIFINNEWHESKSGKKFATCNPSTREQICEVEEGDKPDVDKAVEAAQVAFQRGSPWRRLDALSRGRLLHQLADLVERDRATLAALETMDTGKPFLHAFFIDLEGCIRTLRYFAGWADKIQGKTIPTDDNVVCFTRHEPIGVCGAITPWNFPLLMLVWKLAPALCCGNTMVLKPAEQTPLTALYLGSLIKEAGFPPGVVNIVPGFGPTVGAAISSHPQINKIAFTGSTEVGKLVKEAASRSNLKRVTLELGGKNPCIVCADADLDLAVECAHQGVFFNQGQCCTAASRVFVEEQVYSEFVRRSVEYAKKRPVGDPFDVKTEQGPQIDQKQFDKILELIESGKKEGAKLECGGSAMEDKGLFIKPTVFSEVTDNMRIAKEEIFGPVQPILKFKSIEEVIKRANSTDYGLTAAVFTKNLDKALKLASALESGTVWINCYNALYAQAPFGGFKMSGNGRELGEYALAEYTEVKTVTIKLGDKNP
Assay: ALDH1A3 cellular assay (ALDEFLUOR) in WM266.4 melanoma cells
Format: cell-based
Conditions: WM266.4 cells; 60 min incubation; percentage of ALDH-positive cells
From the text: Materials: WM266.4 cells were procured from ATCC. (WM266-4 is a metastatic human melanoma cell line.) The ALDEFLUOR™ Assay kit (cat. no. 01700) and Aldefluor buffer (cat. no. 01702) were procured from StemCell Technologies. Dulbecco's Modified Eagle Medium (DMEM), FluoroBrite DMEM, Glutamax and Hoechst 33342 were purchased from ThermoFisher. Verapamil was obtained from Fluorochem. FBS was obtained from Sigma. Echo Qualified 384-well low-dead-volume microplate and Echo Qualified 384-well polypropylene microplate were purchased from Labcyte, and the Microclear black sterile polystyrene microplate from Greiner Bio-One.
Method: Intracellular inhibition of ALDH1A3 was assessed using the ALDEFLUOR™ Assay kit. The activated ALDEFLUOR™ reagent, BODIPY-aminoacetaldehyde (BAAA), is a fluorescent non-toxic substrate for ALDH enzymes, which freely diffuses into intact and viable cells. In the presence of ALDH enzyme activity, BAAA is converted into BODIPY-aminoacetate (BAA), which is retained inside the cells. The amount of fluorescent reaction product is proportional to the ALDH activity in the cells and is measured using an imaging cytometer. Active efflux of the reaction product is inhibited by an efflux inhibitor (Verapamil) in the ALDEFLUOR™ Assay Buffer.
A frozen vial of cells was recovered into a T225 flask containing DMEM, high glucose, 10% FBS, 1% glutamax, 1% HEPES. The following day, media was changed and cells were ready for assay from 72 hours after recovery. Cells were transferred into FluoroBrite DMEM (plus 10% FBS, 1% glutamax and 1% HEPES) and diluted to 2.5×10^5 cells/mL. 30 μL of cells were added to each well to give 7500 cells/well and then incubated overnight at 37° C., 5% CO2. After overnight incubation, the media was aspirated and replaced by 20 μL substrate/Hoechst buffer solution. Each plate requires 9 mL of solution comprising, 9 mL ALDEFLUOR assay buffer, 18 μL BAAA substrate (final concentration 500 nM), 4.5 μL Hoechst 33342 (final concentration 5 μg/mL) and 4.5 μL Verapamil (final concentration 50 μM). Compounds were prepared for dosing using the Echo acoustic dispenser by aliquoting into a source plate and dosed directly onto the cell assay plate to give a 10 point dose response per compound ranging from 10 μM to 0.0005 μM final concentration in 3-fold dilution steps. Plates were then incubated for 60 minutes at 37° C., 5% CO2. The buffer was then aspirated and cells washed twice in ice-cold PBS. Plates were kept on ice and 30 μL of cold Aldefluor buffer with 50 μM verapamil dispensed per well. The plates were then imaged using the CellInsight fluorescent microscope. Hoechst fluorescence in the 405 nm channel indicated the nuclear area and this was used to define nuclei and then the surrounding cellular area. Fluorescence in the 488 nm channel of the defined cellular area indicates ALDH1A3 activity. The percentage of cells positive for ALDH activity was plotted versus compound concentration to generate EC50 values using curve fitting parameters defined in Dotmatics software.

| Compound | IC50 |
| --- | --- |
| O=C1CCc2cc(OCCN(CCO)Cc3cccc(F)c3)ccc2N1 [ALDHI-3002, 6-[2-[(3-fluorophenyl)methyl-(2-hydroxyethyl)amino]ethoxy]-3,4-dihydro-1H-quinolin-2-one] | < 100 nM |
| C[C@H](c1ccccc1)N(CCO)CCOc1ccc2c(c1)CCC(=O)N2 [ALDHI-3006, 6-[2-[2-hydroxyethyl-[(1R)-1-phenylethyl]amino]ethoxy]-3,4-dihydro-1H-quinolin-2-one] | 100 to 1000 nM |
| CC1Cc2cc(OCCN3CCCC3c3cccc(F)c3)ccc2NC1=O (centres unmarked) [ALDHI-2048, 6-[2-[2-(3-fluorophenyl)pyrrolidin-1-yl]ethoxy]-3-methyl-3,4-dihydro-1H-quinolin-2-one] | < 100 nM |
| O=C1CCc2cc(NC(=O)c3scnc3-c3ccc(F)cc3)ccc2N1 [ALDHI-1017, 4-(4-fluorophenyl)-N-(2-oxo-1,2,3,4-tetrahydroquinolin-6-yl)thiazole-5-carboxamide] | 100 to 1000 nM |
| O=C1CCc2cc(OCCN3CCCC3c3ccccc3F)ccc2N1 (centres unmarked) [ALDHI-2002, 6-[2-[2-(2-fluorophenyl)pyrrolidin-1-yl]ethoxy]-3,4-dihydro-1H-quinolin-2-one] | 1000 to 10000 nM |
| CCN(CC)CCN(CCOc1ccc2c(c1)CCC(=O)N2)Cc1ccccc1 [ALDHI-3004, 6-[2-[benzyl-[2-(diethylamino)ethyl]amino]ethoxy]-3,4-dihydro-1H-quinolin-2-one] | < 100 nM |
| CCC1Oc2cc(OCCN3CCCC3c3cccc(F)c3)ccc2NC1=O (centres unmarked) [ALDHI-2045, 2-ethyl-7-[2-[2-(3-fluorophenyl)pyrrolidin-1-yl]ethoxy]-4H-1,4-benzoxazin-3-one] | < 100 nM |
| O=C1CSc2cc(OCCN3CCCC3c3cccc(F)c3)ccc2N1 (centres unmarked) [ALDHI-2008, 7-[2-[2-(3-fluorophenyl)pyrrolidin-1-yl]ethoxy]-4H-1,4-benzothiazin-3-one] | < 100 nM |
| O=C1CCc2cc(NC(=O)c3sc(N4CCOCC4)nc3-c3cccc(F)c3)ccc2N1 [ALDHI-1001, 4-(3-fluorophenyl)-2-morpholino-N-(2-oxo-3,4-dihydro-1H-quinolin-6-yl)thiazole-5-carboxamide] | < 100 nM |
| CC1(c2cccc(F)c2)CCCN1CCOc1ccc2c(c1)CCC(=O)N2 (centres unmarked) [ALDHI-2037, 6-[2-[2-(3-fluorophenyl)-2-methyl-pyrrolidin-1-yl]ethoxy]-3,4-dihydro-1H-quinolin-2-one] | < 100 nM |
| O=C1CCc2cc(NC(=O)c3scnc3-c3cccc(F)c3)ccc2N1 [ALDHI-1003, 4-(3-fluorophenyl)-N-(2-oxo-3,4-dihydro-1H-quinolin-6-yl)thiazole-5-carboxamide] | < 100 nM |
| O=C1CCc2cc(OCCN3CCCC3c3cccc(F)c3)ccc2N1 (centres unmarked) [ALDHI-2001, 6-[2-[2-(3-fluorophenyl)pyrrolidin-1-yl]ethoxy]-3,4-dihydro-1H-quinolin-2-one] | < 100 nM |
| O=C1CCc2cc(OCCN3CCCC3c3ccccn3)ccc2N1 (centres unmarked) [ALDHI-2006, 6-[2-[2-(2-pyridyl)pyrrolidin-1-yl]ethoxy]-3,4-dihydro-1H-quinolin-2-one] | 1000 to 10000 nM |
| O=C1CCc2cc(OCCN3CCC[C@H]3c3cccc(F)c3)ccc2N1 [ALDHI-2018, 6-[2-[(2S)-2-(3-fluorophenyl)pyrrolidin-1-yl]ethoxy]-3,4-dihydro-1H-quinolin-2-one] | < 100 nM |
| CC1CN(CCOc2ccc3c(c2)CCC(=O)N3)C(c2ccccc2)CO1 (mixture of isomers) [ALDHI-2042, 6-[2-(2-methyl-5-phenyl-morpholin-4-yl)ethoxy]-3,4-dihydro-1H-quinolin-2-one] | 100 to 1000 nM |
| O=C1CSc2cc(OCCN3CCCC3c3cccnc3)ccc2N1 (centres unmarked) [ALDHI-2028, 7-[2-[2-(3-pyridyl)pyrrolidin-1-yl]ethoxy]-4H-1,4-benzothiazin-3-one] | 100 to 1000 nM |

| Compound | IC50 |
| --- | --- |
| O=C1CCc2cc(NC(=O)c3cncnc3-c3cccc(F)c3)ccc2N1 [ALDHI-1018, 4-(3-fluorophenyl)-N-(2-oxo-3,4-dihydro-1H-quinolin-6-yl)pyrimidine-5-carboxamide] | 100 to 1000 nM |
| O=C1CCc2cc(OCCN3CCCC3c3cccs3)ccc2N1 (centres unmarked) [ALDHI-2013, 6-[2-[2-(2-thienyl)pyrrolidin-1-yl]ethoxy]-3,4-dihydro-1H-quinolin-2-one] | 100 to 1000 nM |
| CN(CCOc1ccc2c(c1)CCC(=O)N2)C(CO)c1cccc(F)c1 (centres unmarked) [ALDHI-3003, 6-[2-[[1-(3-fluorophenyl)-2-hydroxy-ethyl]-methyl-amino]ethoxy]-3,4-dihydro-1H-quinolin-2-one] | 100 to 1000 nM |
| O=C1CCCc2cc(OCCN3CCCC3c3cccc(F)c3)ccc2N1 (centres unmarked) [ALDHI-2020, 7-[2-[2-(3-fluorophenyl)pyrrolidin-1-yl]ethoxy]-1,3,4,5-tetrahydro-1-benzazepin-2-one] | 100 to 1000 nM |
| Cc1ccccc1C1CCCN1CCOc1ccc2c(c1)CCC(=O)N2 (centres unmarked) [ALDHI-2012, 6-[2-[2-(o-tolyl)pyrrolidin-1-yl]ethoxy]-3,4-dihydro-1H-quinolin-2-one] | 1000 to 10000 nM |
| O=C1CCc2cc(OCCN3CC(O)CC3c3cccc(F)c3)ccc2N1 (mixture of isomers) [ALDHI-2035, 6-[2-[2-(3-fluorophenyl)-4-hydroxy-pyrrolidin-1-yl]ethoxy]-3,4-dihydro-1H-quinolin-2-one] | < 100 nM |
| O=C1CCc2cc(OCCN3CCCC3c3cc(F)cc(F)c3)ccc2N1 (centres unmarked) [ALDHI-2032, 6-[2-[2-(3,5-difluorophenyl)pyrrolidin-1-yl]ethoxy]-3,4-dihydro-1H-quinolin-2-one] | < 100 nM |
| O=C1CCc2cc(OCCN3CCC[C@@H]3c3cccc(F)c3)ccc2N1 [ALDHI-2007, 6-[2-[(2R)-2-(3-fluorophenyl)pyrrolidin-1-yl]ethoxy]-3,4-dihydro-1H-quinolin-2-one] | < 100 nM |
| Cc1ccc(C2CCCN2CCOc2ccc3c(c2)CCC(=O)N3)cn1 (centres unmarked) [ALDHI-2030, 6-[2-[2-(6-methyl-3-pyridyl)pyrrolidin-1-yl]ethoxy]-3,4-dihydro-1H-quinolin-2-one] | 100 to 1000 nM |
| COc1cccc(C2CCCN2CCOc2ccc3c(c2)CCC(=O)N3)c1 (centres unmarked) [ALDHI-2034, 6-[2-[2-(3-methoxyphenyl)pyrrolidin-1-yl]ethoxy]-3,4-dihydro-1H-quinolin-2-one] | 1000 to 10000 nM |
| CC1(c2ccccc2)COCCN1CCOc1ccc2c(c1)CCC(=O)N2 (centres unmarked) [ALDHI-2040, 6-[2-(3-methyl-3-phenyl-morpholin-4-yl)ethoxy]-3,4-dihydro-1H-quinolin-2-one] | 100 to 1000 nM |
| O=C1CCc2cc(OCCN3CCOCC3c3cccc(F)c3)ccc2N1 (centres unmarked) [ALDHI-2031, 6-[2-[3-(3-fluorophenyl)morpholin-4-yl]ethoxy]-3,4-dihydro-1H-quinolin-2-one] | < 100 nM |
| CN(CCOc1ccc2c(c1)CCC(=O)N2)C(=O)c1cccnc1 [ALDHI-3013, N-methyl-N-[2-[(2-oxo-3,4-dihydro-1H-quinolin-6-yl)oxy]ethyl]pyridine-3-carboxamide] | 1000 to 10000 nM |
| O=C1CCc2cc(NC(=O)c3ncsc3-c3ccsc3)ccc2N1 [ALDHI-1011, N-(2-oxo-3,4-dihydro-1H-quinolin-6-yl)-5-(3-thienyl)thiazole-4-carboxamide] | 1000 to 10000 nM |
| O=C1CCc2cc(OCCN3CCCC3c3ccsc3)ccc2N1 (centres unmarked) [ALDHI-2014, 6-[2-[2-(3-thienyl)pyrrolidin-1-yl]ethoxy]-3,4-dihydro-1H-quinolin-2-one] | 100 to 1000 nM |
| CC1(C)Oc2cc(OCCN3CCCC3c3cccc(F)c3)ccc2NC1=O (centres unmarked) [ALDHI-2043, 7-[2-[2-(3-fluorophenyl)pyrrolidin-1-yl]ethoxy]-2,2-dimethyl-4H-1,4-benzoxazin-3-one] | 100 to 1000 nM |
